In the case of `CC(CN1C(=O)C2(COc3cc4c(cc32)CCO4)c2ccccc21)OCc1ccccn1` (centres undefined), the melting point (usually the temperature, or range, at which the solid turns liquid) fell in the range of 46 to 54 °C.

With `CCOC(=O)COc1ccc([N+](=O)[O-])cc1OC`, the melting point was in the range of 87 to 88 °C. As to `Cc1cccc(-c2[nH]c(C(C)C)nc2-c2cccc(-c3ccc(S(N)(=O)=O)cc3F)c2)n1`, the melting point lay in the range of 246 to 248 °C. As for `COc1cccc2c1oc1c(N)n(C)nc12`, the melting point is 186 to 188 °C.

`CCCOc1ccccc1-c1nc(CO)c[nH]1` displayed a melting point of 90 to 92 °C. Compound `CCNc1nc(-c2ccc(NC(=O)NCc3cccnc3)cc2)ccc1C(=O)NCCN(C(C)C)C(C)C` yielded a melting point of 160 to 162 °C.

Turning to `C=CC(=O)Nc1cccc2c(=O)c(C)c(-c3ccccc3)oc12`, the melting point lay within 229 to 230 °C.

`C=CCC1(CC=C)c2cc(Br)ccc2-c2ccc(N(c3ccccc3)c3ccccc3)cc21` displayed a melting point of 141 to 143 °C.

The compound `O=P(O)(O)CSc1nc2cc(Cl)c(C#Cc3ccccc3)cc2[nH]1` showed a melting point of 210 to 215 °C. `Cn1nc2nnsc2c1Br` showed a melting point of 99 to 101 °C. For the compound `COC(=O)c1cccc2[nH]c3cc4ccccc4c(OC)c3c12`, the melting point lay in the range of 190 to 196 °C. The compound `O=C(Cl)CCS(=O)(=O)CCCl` yielded a melting point of 73 to 75 °C.

`COc1c(Cl)cc(N=C=S)cc1C(=O)Nc1c(C)cccc1C`: the melting point lay within 191 to 192 °C.

The compound `COc1ccc2c(c1)CCC1CCNC(=O)C(CC(C)=NO)=C21` (centres undefined) had a melting point of 216 to 218 °C. Turning to `NC(=O)Cc1cc(Oc2ccc3c(ccn3C(=O)Nc3ccc(N4CCS(=O)(=O)CC4)c(C(F)(F)F)c3)c2)ncn1`, the melting point lay in the range of 284 to 285 °C. With `COc1ccc(Oc2c(SCc3ccccc3)cc(C(=O)O)cc2S(N)(=O)=O)cc1`, the melting point fell in the range of 215 to 216 °C. Consider `O=c1[nH]c(=O)n(-c2ccccc2)n1-c1ccccc1`, for which the melting point lay in the range of 216 to 217 °C. `COC(=O)c1cccc(-c2nc(C(Cl)(Cl)Cl)nc(C(Cl)(Cl)Cl)n2)c1` returned a melting point of 115 to 117 °C. `CS(=O)(=O)c1ccc(C2=C(c3ccc(F)cc3)C(=O)C2(Cl)Cl)cc1` yielded a melting point of 116 to 118 °C. As for `CC1(C)C(=O)Oc2ccc3ccc(Cn4ccnc4)cc3c21`, the melting point fell in the range of 135 to 136 °C. `Cn1c(C(F)(F)F)ccc(-c2cc(CBr)c(Cl)cc2F)c1=O` had a melting point of 117 to 118 °C. The compound `O=C(O)c1cccc2cc(Cc3cc(=O)[nH]c(=S)[nH]3)ccc12` registered a melting point of 334 to 337 °C. The compound `O=c1c(-c2ccccc2O)coc2c(O)c(O)ccc12` showed a melting point of 240 to 242 °C. For `Cn1c(=O)c2c(nc3n2CC(O)CN3)n(C)c1=O` (centres undefined), the melting point turned out to be 360 °C. Compound `C=CCSc1cc(C(=O)O)cc(N)c1-c1ccccc1` came in with a melting point of 150 °C. Then `O=C(O)c1cc2ccc(OCCNC[C@H](O)COc3ccccc3)cc2o1`, with 214 to 217 °C. With `COc1ccc(NC(=O)c2ccccc2)cc1Nc1ccccc1`, the melting point was in the range of 209 to 210 °C. As to `COc1cc(C(=O)OC(C)(C)C)ccc1Cn1cc(C=O)c2ccc(C(=O)NCC3CCCC3)cc21`, the melting point lay in the range of 134 to 135 °C.

Take `CCOC(=O)C(NC(=O)CO)C(=O)OCC`: the melting point lay in the range of 74 to 74.5 °C. The compound `CSC[C@H](NC(=O)C(C)(C)SC)C(=O)O` gave a melting point of 120 to 121 °C. `O=[N+]([O-])c1ccc(-n2nc(-c3ccccc3O)nc2-c2ccccc2O)cc1`: the melting point was 180 to 183 °C. On to `CSc1nc(Cl)c2sccc2n1`, for which the melting point lay in the range of 115 to 118 °C.

The compound `CN(C(=O)c1c(Cl)cccc1Cl)c1cc(-c2ccc(Cl)cc2)on1` had a melting point of 175 to 178 °C. Take `CCNC(=O)NC1CCCc2sccc21` (centres undefined): the melting point was 184 to 188 °C. The compound `CCCCOc1ncc(C(C)=O)cc1-c1nc2c(CC)n(C3CN(CC)C3)nc2c(=O)[nH]1` came in with a melting point of 143 to 144 °C. Regarding `NC(=O)NC(C(=O)O)c1cccs1` (centres undefined), the melting point lay in the range of 183 to 185 °C. `COc1ccc(Cl)cc1-c1c(S)c(=O)[nH]c2ccc(C(F)(F)F)cc12`: the melting point is 239 to 241 °C. As for `CNC(=S)C1(c2cccnc2)CCCCC1NOCCO` (centres undefined), the melting point fell in the range of 142 to 145 °C. Then `Cc1cc2c(S(C)(=O)=O)nc(OCC(F)(F)F)nc2s1`, with 138 to 140 °C; and `CC(C)Nc1nccc(C(=O)C(=O)c2ccc(F)cc2)n1`, with 75 to 77 °C. `Cc1cc(Cl)ccc1NC(=S)N(C)OCC(=O)O` returned a melting point of 110 to 113 °C. In turn, `Cn1c(=O)c2[nH]c(C=Cc3cccc(C(F)(F)F)c3)nc2n(C)c1=O` had a melting point of more than 300 °C. In the case of `COc1ccc(-c2ccc(C(=O)Nc3ccc4cc(CN5CCCC5)cnc4c3C)cc2F)cc1`, the melting point fell in the range of 174 to 176 °C. For `CCCCN(C1CCCOc2c(C)cc(Cl)cc21)S(=O)(=O)CC` (centres undefined), the melting point lay within 83 to 87 °C. Turning to `CCCc1c(OCCCOc2ccc3ccc(OCC(=O)OC)cc3c2C(C)=O)ccc(C(C)=O)c1O`, the melting point lay in the range of 104 to 107 °C.

Turning to `CCCCCCOc1c(OCCCCCC)c(OC(=O)C(C)(C)C)c2ccccc2c1OC(=O)C(C)(C)C`, the melting point is 111 to 112 °C.

`COc1ccc(N2CCN(c3c(C)c(C)c4c(c3C)C(OCc3ccccc3)C(C)(C)O4)CC2)cc1` (centres undefined) yielded a melting point of 98 to 99 °C. Compound `COc1ccccc1C(NCC(=O)Nc1c(C(C)C)cccc1C(C)C)c1ccccc1` (centres undefined) gave a melting point of 133 to 134 °C. `CCOC(=O)c1cc2ccc(Cl)c(N(C)S(=O)(=O)c3cccs3)c2[nH]1` returned a melting point of 156 to 157 °C. Then `Cc1cc(C)nc(NC(=O)NS(=O)(=O)c2ccccc2C(F)F)n1`, with 190 to 195 °C; and `Oc1ccc2c(c1)COc1c-2cc2ccc(O)cc2c1-c1ccccc1F`, with 240 to 242 °C; and `NC(=O)c1cc(-c2ccccc2)c(=O)n2c1-c1ccccc1C2`, with 294 to 296 °C. For the compound `O=C1N(Cc2noc(C(F)(F)F)n2)c2ccccc2C12COc1cc3c(cc12)OCO3` (centres undefined), the melting point lay in the range of 139 to 140 °C. The same measure for `Cc1ccc(-c2nnc(N3CCC(C(N)=O)CC3)nc2-c2ccc(C)cc2)cc1`: 222 to 224 °C; for `CCc1nc2c(N)nc3ccccc3c2n1CC#Cc1ccc(OC)cc1`: 179 to 181 °C. The same measure for `C=CC(=O)NCCCCCC(=O)O`: 88 to 90 °C. For `Cc1cc(C(=O)N(C)C)ncc1C(c1c(F)ccc(F)c1F)S(=O)(=O)CCC(F)(F)F` (centres undefined), the melting point fell in the range of 203 to 204 °C. The same measure for `CN(Cc1cccc2ccccc12)c1nc(N2CCC(N(C)C)CC2)nc2c(N3CCOCC3)ncnc12`: 124 to 126 °C; for `O=C1c2ccccc2COc2ccc(CCO)cc21`: 78 to 81.5 °C. Then `O=c1c2ccccc2oc2cc(OCC3CO3)ccc12` (centres undefined), with 157 to 158 °C; and `CCNc1nc(OCc2ccccc2)nc2c1ncn2C1OC(CO)C(O)C1O` (centres undefined), with 170 to 171 °C; and `O=C(NC(=O)c1ccccc1Cl)Nc1cnc(C(F)(F)F)cn1`, with 219 to 220 °C. Compound `CC(O)(c1nc2ccc([N+](=O)[O-])cc2[nH]1)C(F)(F)F` (centres undefined) yielded a melting point of 73 to 75 °C. `CN(C)C(=O)c1c(-c2ccccc2)ccc2ccccc12` returned a melting point of 133 to 134 °C. `CS(=O)(=O)c1ccc(-c2cnn(CC(F)(F)F)c(=O)c2Oc2ccc(F)cc2)cc1` yielded a melting point of 161 to 164 °C.

In turn, `Cc1nc(-c2cccnc2)sc1-c1ccnc(Nc2ccc3c(c2)OCO3)n1` had a melting point of 187 to 188 °C. The compound `CCCOc1ccc(C2CCCN3CCS(=O)(=O)N=C23)cc1` (centres undefined) had a melting point of 169 to 170 °C. As for `CCOc1ccc(CC2SC(=N)NC2=O)cc1OCC` (centres undefined), the melting point fell in the range of 171 to 172 °C.

In the case of `CC(=O)Nc1cccc(-c2ccc3nc(-c4cccnc4N)n(-c4ccc(CNS(=O)(=O)c5cn(C)cn5)cc4)c3n2)c1`, the melting point was 190 to 192 °C. The same measure for `CCc1nc2ccc(OC(F)(F)F)cc2[nH]1`: 135 to 137 °C; for `Clc1ccc2c(c1)C(c1ccccc1)=NCc1nnc(CN3CCCCC3)n1-2`: 202 to 203 °C; for `C[C@H]1[C@H](O)C(F)(F)C(=O)N1c1ccc(C#N)c(Cl)c1`: 133 to 139 °C. In turn, `O=C(O)c1cn(C2CC2)c2cc(N3CCNC(c4cc5ccccc5o4)C3)c(F)cc2c1=O` (centres undefined) had a melting point of 203 to 206 °C.

For the compound `Cc1c(NC(=O)c2ccc(OC[C@@H]3CCCO3)cc2)ccc2cc(CN3CCC(C)(O)CC3)n(C)c12`, the melting point is 140 to 141 °C. Compound `CC(C)[C@H](N)C(c1ccccc1)c1ccccc1` came in with a melting point of 71 to 72 °C. For the compound `CCCCNc1nc(-c2cc(OC)c(OC)c(OC)c2)nc2sc(C#N)c(C)c12`, the melting point is 192 to 194 °C. Then `CCOC(=O)c1[nH]cc2c1NC1=C(C(=O)CNC1)C2c1ccc(Sc2nc3ccc(OC)cc3[nH]2)o1` (centres undefined), with 248 °C. The same measure for `Cc1cnc2c(NC(=O)c3c(Cl)cccc3Cl)ccc(Br)c2c1`: 238 to 239 °C; for `CCC1=C(Cl)C(=O)c2ccccc2C1=O`: 109 to 110 °C; for `NC(=O)CC[C@H](NCc1ccccc1C(=O)O)C(=O)O`: 132 to 133 °C. In the case of `CC(C)C1(C)NC(c2ccccc2C(=O)O)=NC1=O` (centres undefined), the melting point lay in the range of 162 to 163 °C. With `OC(CCCN1CC=C(c2ccccc2)CC1)c1ccc(F)cc1` (centres undefined), the melting point lay in the range of 116 to 117 °C. The same measure for `CCC(=O)OC1(C(=O)C(O)OC(=O)C(NC(=O)OC(C)(C)C)C(C)C)CCC2C3CC(C)C4=CC(=O)C=CC4(C)C3C(O)CC21C` (centres undefined): 110 to 130 °C; for `CC(C)OC(=O)N1CCC(c2ccc3nc(-c4ccc(S(C)(=O)=O)cc4F)oc3c2)CC1`: 170 to 174 °C; for `COC(C)c1cc(S(N)(=O)=S)sc1C` (centres undefined): 86 to 94 °C. Compound `Cc1cc(-c2nc(CCl)co2)sc1Br` displayed a melting point of 71 to 72 °C. Compound `Nc1cc(C(=O)O)cc(S)c1Oc1ccccc1` came in with a melting point of 199 to 200 °C.

The compound `NC(=O)C1CCc2c(C(=O)c3ccccc3)cccc21` (centres undefined) had a melting point of 164 to 166 °C. The compound `N=C(N)Nc1nc(CSCCNC(N)=N[N+](=O)[O-])ns1` displayed a melting point of 184 to 186 °C.
